Measurements taken from ChEMBL document CHEMBL1135998, “Identification of orally active, potent, and selective 4-piperazinylquinazolines as antagonists of the platelet-derived growth factor receptor tyrosine kinase family” (J Med Chem, 2002).

Experiments:
in vivo [1] = details: rat, po, 5 mg/kg
in vivo [2] = details: primates, po, 5 mg/kg
in vivo [3] = details: rat, po, 5 mg/kg; remark: listed apart in the source
in vivo [4] = details: simiiformes, po, 5 mg/kg
in vivo [5] = details: dog, po, 5 mg/kg
in vivo [6] = details: simiiformes, po, 5 mg/kg; remark: listed apart in the source
in vivo [7] = assay: in vivo
in vivo [8] = details: dog, po, 5 mg/kg; remark: listed apart in the source
in vivo [9] = details: dog, po, 5 mg/kg; remark: listed apart in the source
in vivo [10] = details: rat, po, 30 mg/kg
in vivo [11] = details: dog, po, 7.5 mg/kg
in vivo [12] = details: primates, po, 5 mg/kg; remark: listed apart in the source
in vivo [13] = details: rat, po, 30 mg/kg; remark: listed apart in the source
in vivo [14] = details: dog, po, 7.5 mg/kg; remark: listed apart in the source
in vivo [15] = details: rat, po, 30 mg/kg; remark: listed apart in the source
in vivo [16] = details: dog, po, 7.5 mg/kg; remark: listed apart in the source
in vivo [17] = details: rat, plasma, po, 30 mg/kg
in vivo [18] = details: primates, po, 10 mg/kg
in vivo [19] = details: simiiformes, plasma, po, 10 mg/kg
in vivo [20] = details: simiiformes, po, 10 mg/kg
in vivo [21] = details: rat, po, 30 mg/kg; remark: listed apart in the source

For `COc1cc2c(N3CCN(C(=O)Nc4ccc(OC(C)C)cc4)CC3)ncnc2cc1OCCCN1CCOCC1`, the AUC (in vivo [1]) was 176 ng·h/mL, the bioavailability (in vivo [2]) was 18.9% and the bioavailability (in vivo [3]) was 20.8%. For the same molecule, the AUC (in vivo [4]) was 663 ng·h/mL, the Cmax (in vivo [5]) was 183 ng/mL and the Cmax (in vivo [6]) was 135 ng/mL. For the same molecule, the Cmax (in vivo [7]) was 49.2 ng/mL, the bioavailability (in vivo [8]) was 63.3% and the AUC (in vivo [9]) was 1390 ng·h/mL.
For `COc1cc2c(N3CCN(C(=O)Nc4ccc(OC(C)C)cc4)CC3)ncnc2cc1OCCCN1CCCCC1` [TANDUTINIB], the AUC (in vivo [10]) was 1700 ng·h/mL, the AUC (in vivo [11]) was 2690 ng·h/mL and the bioavailability (in vivo [12]) was 48.9%. It also gave a bioavailability (in vivo [13]) of 23.8%, a bioavailability (in vivo [14]) of 97.6% and an AUC (in vivo [4]) of 2920 ng·h/mL. For the same molecule, the Cmax (in vivo [15]) was 256 ng/mL, the Cmax (in vivo [16]) was 481 ng/mL and the Cmax (in vivo [7]) was 317 ng/mL.
In the case of `COc1cc2c(N3CCN(C(=O)Nc4ccc(OC(C)C)cc4)CC3)ncnc2cc1OCCN1CCCCC1`, the AUC (in vivo [17]) is reported as 4410 ng·h/mL, the bioavailability (in vivo [18]) is reported as 38.8% and the AUC (in vivo [19]) is reported as 3080 ng·h/mL. For the same molecule, the Cmax (in vivo [20]) was 386 ng/mL, the Cmax (in vivo [5]) was 43 ng/mL and the Cmax (in vivo [21]) was 414 ng/mL. For the same molecule, the bioavailability (in vivo [8]) was 13.5% and the AUC (in vivo [9]) was 387 ng·h/mL.
